Converted amounts (≈) assume the structure as drawn.
Legend:
[1] = target: Glycogen synthase kinase-3 beta (Homo sapiens, UniProt P49841); test: Inhibition of human recombinant full length GSK3-beta after 1 hrs by luminescence assay
Escherichia coli = test: Antibacterial activity against Escherichia coli after 18 hrs by microdilution assay; format: functional
Staphylococcus aureus = test: Antibacterial activity against Staphylococcus aureus after 18 hrs by microdilution assay; format: functional

Glycogen synthase kinase-3 beta, sequence (P49841 whole entry): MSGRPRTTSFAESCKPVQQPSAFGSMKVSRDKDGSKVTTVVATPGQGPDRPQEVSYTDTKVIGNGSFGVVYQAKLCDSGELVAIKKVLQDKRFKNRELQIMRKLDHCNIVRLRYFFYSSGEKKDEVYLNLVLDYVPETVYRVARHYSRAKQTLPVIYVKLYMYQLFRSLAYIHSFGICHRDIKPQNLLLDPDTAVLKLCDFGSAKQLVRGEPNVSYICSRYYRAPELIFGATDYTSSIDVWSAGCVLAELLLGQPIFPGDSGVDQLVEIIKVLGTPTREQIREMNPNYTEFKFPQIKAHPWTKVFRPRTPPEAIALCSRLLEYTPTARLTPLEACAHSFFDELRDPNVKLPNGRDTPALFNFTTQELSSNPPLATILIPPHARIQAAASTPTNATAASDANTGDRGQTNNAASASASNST

## CC(C)Nc1c(F)c(N)c2c(=O)c(C(=O)O)cn(C3CC3)c2c1F
[1]
  IC50: 1200 nM

## Nc1c(F)c(NC2CCCCC2)c(F)c2c1c(=O)c(C(=O)O)cn2C1CC1
[1]
  IC50: 600 nM

## Nc1c(F)c(NCCc2c[nH]c3ccccc23)c(F)c2c1c(=O)c(C(=O)O)cn2C1CC1
[1]
  IC50: 660 nM

## Nc1c(F)c(NCCN2CCOCC2)c(F)c2c1c(=O)c(C(=O)O)cn2C1CC1
[1]
  IC50: 2100 nM

## Nc1c(F)c(NCCc2ccccc2)c(F)c2c1c(=O)c(C(=O)O)cn2C1CC1
[1]
  IC50: 440 nM

## Nc1c(F)c(NCCCc2ccccc2)c(F)c2c1c(=O)c(C(=O)O)cn2C1CC1
[1]
  IC50: 45 nM

## Nc1c(F)c(NCCCCc2ccccc2)c(F)c2c1c(=O)c(C(=O)O)cn2C1CC1
[1]
  IC50: 290 nM

## Nc1c(F)c(NCCn2ccnc2)c(F)c2c1c(=O)c(C(=O)O)cn2C1CC1
[1]
  IC50: 3400 nM

## Nc1c(F)c(NCCCn2ccnc2)c(F)c2c1c(=O)c(C(=O)O)cn2C1CC1
[1]
  IC50: 45 nM

## Nc1c(F)c(NCCNc2cccc3ccccc23)c(F)c2c1c(=O)c(C(=O)O)cn2C1CC1
[1]
  IC50: 47 nM

## Nc1c(F)c(NCCc2ccncc2)c(F)c2c1c(=O)c(C(=O)O)cn2C1CC1
[1]
  IC50: 100 nM

## Nc1c(F)c(NCCNc2ccccn2)c(F)c2c1c(=O)c(C(=O)O)cn2C1CC1
[1]
  IC50: 190 nM

## CC(C)OCCCNc1c(F)c(N)c2c(=O)c(C(=O)O)cn(C3CC3)c2c1F
[1]
  IC50: 110 nM

## COc1c(NCCCc2ccccc2)c(F)cc2c(=O)c(C(=O)O)cn(C3CC3)c12
[1]
  IC50: 17000 nM

## COc1c(NCCCc2ccccc2)c(F)c(N)c2c(=O)c(C(=O)O)cn(C3CC3)c12
[1]
  IC50: 65 nM

## COc1c(NCCNc2cccc3ccccc23)c(F)cc2c(=O)c(C(=O)O)cn(C3CC3)c12
[1]
  IC50: 26000 nM

## COc1c(NCCNc2cccc3ccccc23)c(F)c(N)c2c(=O)c(C(=O)O)cn(C3CC3)c12
[1]
  IC50: 31 nM

## Nc1c(F)c(NCCNc2ccccn2)cc2c1c(=O)c(C(=O)O)cn2C1CC1
[1]
  IC50: 13 nM
Escherichia coli
  MIC: 0.8 µM (≈ 0.318 µg/mL)
Staphylococcus aureus
  MIC: 0.2 µM (≈ 0.0795 µg/mL)

## COc1c(NCCNc2ccccn2)c(F)c(N)c2c(=O)c(C(=O)O)cn(C3CC3)c12
[1]
  IC50: 160 nM
Escherichia coli
  MIC: 9 µM (≈ 3.85 µg/mL)
Staphylococcus aureus
  MIC: 1 µM (≈ 0.427 µg/mL)

## COc1c(NCCNc2ccccn2)c(F)c(N)c2c(=O)c(C(=O)O)cn(C3CCCC3)c12
[1]
  IC50: 1500 nM
Escherichia coli
  MIC: > 28 µM
Staphylococcus aureus
  MIC: 7 µM (≈ 3.19 µg/mL)

## Nc1c(F)c(NCCNc2ccccn2)c(F)c2c1c(=O)c(C(=O)O)cn2C1CCCC1
[1]
  IC50: 22 nM
Escherichia coli
  MIC: > 29 µM
Staphylococcus aureus
  MIC: > 29 µM

## COc1c(NCCNc2ccccn2)c(F)c(N)c2c(=O)c(C(=O)O)c[nH]c12
[1]
  IC50: 1000 nM
Escherichia coli
  MIC: 25 µM (≈ 9.68 µg/mL)
Staphylococcus aureus
  MIC: 25 µM (≈ 9.68 µg/mL)

## COc1c(NCCNc2ccccn2)c(F)c(N)c2c(=O)c(C(=O)O)cn(C)c12
[1]
  IC50: 270 nM
Escherichia coli
  MIC: > 13 µM
Staphylococcus aureus
  MIC: 13 µM (≈ 5.22 µg/mL)

## COc1c(NCCNc2ccccn2)c(F)c(N)c2c(=O)c(C(=O)O)cn(CCC(C)C)c12
[1]
  IC50: 16000 nM
Escherichia coli
  MIC: > 28 µM
Staphylococcus aureus
  MIC: > 28 µM

## C[C@@H]1COc2c(NCCNc3ccccn3)c(F)c(N)c3c(=O)c(C(=O)O)cn1c23
[1]
  IC50: 560 nM
Escherichia coli
  MIC: > 243 µM
Staphylococcus aureus
  MIC: 243 µM (≈ 100 µg/mL)

## C[C@H]1COc2c(NCCNc3ccccn3)c(F)c(N)c3c(=O)c(C(=O)O)cn1c23
[1]
  IC50: 44 nM
Escherichia coli
  MIC: 4 µM (≈ 1.65 µg/mL)
Staphylococcus aureus
  MIC: 2 µM (≈ 0.827 µg/mL)

## CC(C)[C@@H]1COc2c(NCCNc3ccccn3)c(F)c(N)c3c(=O)c(C(=O)O)cn1c23
[1]
  IC50: 31 nM
Escherichia coli
  MIC: > 2 µM
Staphylococcus aureus
  MIC: > 2 µM

## CC(C)[C@H]1COc2c(NCCNc3ccccn3)c(F)c(N)c3c(=O)c(C(=O)O)cn1c23
[1]
  IC50: 75 nM
Escherichia coli
  MIC: > 29 µM
Staphylococcus aureus
  MIC: 14 µM (≈ 6.18 µg/mL)

## CC1(C)COc2c(NCCNc3ccccn3)c(F)c(N)c3c(=O)c(C(=O)O)cn1c23
[1]
  IC50: 49 nM
Escherichia coli
  MIC: 59 µM (≈ 25.2 µg/mL)
Staphylococcus aureus
  MIC: 59 µM (≈ 25.2 µg/mL)

## CC1(C)Cn2cc(C(=O)O)c(=O)c3c(N)c(F)c(NCCNc4ccccn4)c(c32)O1
[1]
  IC50: 440 nM
Escherichia coli
  MIC: > 37 µM
Staphylococcus aureus
  MIC: > 37 µM

## CC1(C)COc2c(NCCNc3ccccn3)c(F)c(N)c3c(=O)c(C(=O)O)cn(c23)C1
[1]
  IC50: 160 nM
Escherichia coli
  MIC: > 7 µM
Staphylococcus aureus
  MIC: > 7 µM

## Nc1c(F)c(NCCNc2ccccn2)c2c3c1c(=O)c(C(=O)O)cn3C1(CCC1)CO2
[1]
  IC50: 57 nM
Escherichia coli
  MIC: > 36 µM
Staphylococcus aureus
  MIC: > 36 µM

## Nc1c(F)c(NCCNc2ccccn2)c2c3c1c(=O)c(C(=O)O)cn3C1(CCCC1)CO2
[1]
  IC50: 12 nM
Escherichia coli
  MIC: > 71 µM
Staphylococcus aureus
  MIC: 71 µM (≈ 32.2 µg/mL)

## Nc1ccc(CCNc2c(F)c(N)c3c(=O)c(C(=O)O)cn(C4CC4)c3c2F)cc1
[1]
  IC50: 900 nM
